Source: patent US20260158014A1, “METHODS OF ADMINISTERING VOXELOTOR” (Global Blood Therapeutics, Inc., priority 2021, published 2026)

How the values were obtained:
[1] = Population PK modeling of voxelotor in patients aged 4 to 11 years (part C); format: in vivo, human; details: 4-11 years, n=38; for % of patients with ≥20% Hb occupancy / % Hb occupancy: weight-based dosing; for % Hb occupancy: geometric mean (% CV) in Table 3
Experimental: Population PK modeling was used to determine the whole-blood and plasma PK parameters of voxelotor in the study population. The PK parameters included maximum whole blood or plasma concentration (Cmax), area under the concentration-time curve (AUC), terminal elimination half-life (t1/2), and percent Hb occupancy.
Statistical analyses: All efficacy and safety assessments were summarized with descriptive statistics. Population PK analyses using nonlinear mixed-effects modeling were performed to characterize voxelotor PK in plasma and whole blood.

CYP2C9 = target: T1, CYP2C9 (Homo sapiens, UniProt P11712); experiment: Clinical probe-substrate DDI study: S-warfarin; format: in vivo
T1 construct: endogenous in cells; host or cells: healthy human subjects (in vivo)
Experimental: The effect of voxelotor on the pharmacokinetics (PK) of a single dose of caffeine, warfarin sodium, omeprazole, and midazolam hydrochloride, which are probe substrates for cytochrome P450 (CYP)1A2, CYP2C9, CYP2C19, and CYP3A4, respectively, were studied in healthy subjects. During Period 1, subjects received a single dose of caffeine 100 mg, warfarin sodium 10 mg+vitamin K 10 mg, omeprazole 20 mg, and midazolam hydrochloride 2 mg on Day 1. During Period 2, subjects received voxelotor 900 mg QD on Days 1 and 2 followed by 600 mg QD on Day 3, a single dose of caffeine 100 mg, warfarin sodium 10 mg+vitamin K 10 mg, omeprazole 20 mg, and midazolam hydrochloride 2 mg on Day 4, and voxelotor 600 mg QD on Days 4 through 7.
Whole blood and plasma concentrations of voxelotor and plasma concentrations of caffeine, paraxanthine, S-warfarin, omeprazole, 5-hydroxyomeprazole, midazolam, and 1-hydroxymidazolam were determined using validated assays.

[2] = 72-week population pharmacokinetic analysis in patients with SCD; format: in vivo, human
[3] = test system: CYP3A4, CYP3A5, CYP2B6, CYP2C19, CYP2C9, UGT1A1, and UGT1A9; experiment: Metabolism, in vitro and in vivo studies; format: in vitro ADME
[4] = PK in subjects with renal impairment; format: in vivo, human
Experimental: Following a single 900 mg dose of voxelotor, whole blood exposures in subjects with severe renal impairment (eGFR <30 mL/min/1.73 m^2) were 25% lower compared to healthy controls.

[5] = PK in subjects with hepatic impairment; format: in vivo, human
CYP2C8 = target: T2, CYP2C8 (Homo sapiens, UniProt P10632); experiment: Effect of voxelotor on CYP450 enzymes in vivo: CYP2C8
T2 construct: endogenous in cells; host or cells: human subjects (in vivo)

P-gp = P-gp (Homo sapiens, UniProt P08183); experiment: In vitro transporter study; format: in vitro ADME
OAT1 = OAT1 (Homo sapiens, UniProt Q4U2R8); experiment: In vitro transporter study; format: in vitro ADME
BSEP = BSEP (Homo sapiens, UniProt O95342); experiment: In vitro transporter study; format: in vitro ADME
RasH2 transgenic mice = experiment: 26-week carcinogenicity study; format: in vivo, mouse; details: 26 weeks; oral 30, 150, or 500 mg/kg/day
rat [6] = experiment: Rat Comet assay; details: in vivo
rat [7] = experiment: Rat micronucleus assay; details: in vivo
rats = experiment: Fertility and early embryonic development study; format: in vivo, rat
Experimental: In a fertility and early embryonic development study, voxelotor was administered orally to rats at 15, 50, and 250 mg/kg/day. Males were dosed 28 days prior to mating through cohabitation and females were dosed 14 days prior to mating through gestation Day 7.

CYP3A4 = CYP3A4 (Homo sapiens, UniProt P08684); experiment: Clinical DDI: strong CYP3A4 inhibitor itraconazole on voxelotor; format: in vivo; design: host or cells: Simcyp PBPK simulation; details: healthy subjects
Sequence of CYP3A4 (P08684 whole entry): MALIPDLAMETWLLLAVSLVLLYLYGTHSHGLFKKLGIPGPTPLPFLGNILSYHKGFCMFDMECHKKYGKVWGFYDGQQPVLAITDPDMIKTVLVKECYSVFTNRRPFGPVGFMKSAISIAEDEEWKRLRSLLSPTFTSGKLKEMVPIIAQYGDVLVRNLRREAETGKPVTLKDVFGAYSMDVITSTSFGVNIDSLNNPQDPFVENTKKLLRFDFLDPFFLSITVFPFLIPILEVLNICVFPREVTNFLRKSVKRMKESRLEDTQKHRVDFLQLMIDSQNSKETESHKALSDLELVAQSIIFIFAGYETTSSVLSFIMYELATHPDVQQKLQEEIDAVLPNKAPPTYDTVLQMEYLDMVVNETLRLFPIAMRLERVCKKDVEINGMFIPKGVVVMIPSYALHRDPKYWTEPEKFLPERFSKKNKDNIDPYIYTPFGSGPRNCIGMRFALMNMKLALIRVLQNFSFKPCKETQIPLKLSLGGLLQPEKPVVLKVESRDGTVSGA

T1 sequence (P11712 whole entry): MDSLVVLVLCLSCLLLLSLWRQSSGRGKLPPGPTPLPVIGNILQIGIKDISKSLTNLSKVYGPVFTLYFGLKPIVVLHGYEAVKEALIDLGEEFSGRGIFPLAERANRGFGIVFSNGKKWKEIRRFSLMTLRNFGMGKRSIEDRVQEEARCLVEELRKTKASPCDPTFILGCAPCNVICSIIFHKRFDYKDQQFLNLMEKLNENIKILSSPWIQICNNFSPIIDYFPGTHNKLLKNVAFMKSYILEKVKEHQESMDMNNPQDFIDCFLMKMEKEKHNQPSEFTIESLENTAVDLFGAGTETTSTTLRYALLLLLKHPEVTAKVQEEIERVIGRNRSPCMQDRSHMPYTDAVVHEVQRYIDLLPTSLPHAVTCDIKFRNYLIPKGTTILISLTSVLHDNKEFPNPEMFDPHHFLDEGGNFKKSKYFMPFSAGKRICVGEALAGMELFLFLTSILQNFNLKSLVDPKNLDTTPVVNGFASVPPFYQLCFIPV
Sequence of BSEP (O95342 whole entry, species assumed): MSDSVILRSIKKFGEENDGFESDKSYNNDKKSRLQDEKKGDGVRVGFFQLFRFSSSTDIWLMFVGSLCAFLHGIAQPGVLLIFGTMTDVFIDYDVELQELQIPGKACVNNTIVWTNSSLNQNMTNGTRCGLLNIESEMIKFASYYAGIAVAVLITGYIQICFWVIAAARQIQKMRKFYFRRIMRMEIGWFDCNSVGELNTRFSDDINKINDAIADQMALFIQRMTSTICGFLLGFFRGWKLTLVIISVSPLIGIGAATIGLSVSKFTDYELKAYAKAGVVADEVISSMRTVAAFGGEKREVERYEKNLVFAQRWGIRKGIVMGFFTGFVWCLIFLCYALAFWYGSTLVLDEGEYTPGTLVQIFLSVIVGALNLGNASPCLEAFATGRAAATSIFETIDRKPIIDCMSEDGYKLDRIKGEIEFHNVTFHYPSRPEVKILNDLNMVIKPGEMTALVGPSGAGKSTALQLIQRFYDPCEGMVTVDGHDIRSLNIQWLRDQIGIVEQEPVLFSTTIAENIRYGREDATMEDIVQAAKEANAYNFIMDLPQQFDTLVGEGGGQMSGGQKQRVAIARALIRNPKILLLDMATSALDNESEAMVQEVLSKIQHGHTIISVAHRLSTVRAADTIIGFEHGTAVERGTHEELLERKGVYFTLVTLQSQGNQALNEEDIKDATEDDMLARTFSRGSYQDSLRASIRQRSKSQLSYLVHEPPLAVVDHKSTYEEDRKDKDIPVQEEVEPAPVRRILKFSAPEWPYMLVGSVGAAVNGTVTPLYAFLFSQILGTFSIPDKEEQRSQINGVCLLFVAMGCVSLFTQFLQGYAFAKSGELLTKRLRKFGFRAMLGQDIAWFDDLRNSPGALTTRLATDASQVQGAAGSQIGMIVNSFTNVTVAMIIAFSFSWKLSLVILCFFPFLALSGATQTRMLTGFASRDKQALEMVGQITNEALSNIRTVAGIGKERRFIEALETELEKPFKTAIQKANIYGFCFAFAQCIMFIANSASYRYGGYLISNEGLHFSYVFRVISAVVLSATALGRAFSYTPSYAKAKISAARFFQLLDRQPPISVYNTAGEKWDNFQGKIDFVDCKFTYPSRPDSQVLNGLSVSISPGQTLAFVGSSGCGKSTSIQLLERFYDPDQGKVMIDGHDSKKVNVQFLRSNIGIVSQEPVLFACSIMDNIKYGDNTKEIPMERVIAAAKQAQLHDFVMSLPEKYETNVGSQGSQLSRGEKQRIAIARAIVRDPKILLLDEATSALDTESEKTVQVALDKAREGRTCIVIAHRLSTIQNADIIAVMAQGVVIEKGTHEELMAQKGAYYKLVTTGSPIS
Sequence of P-gp (P08183 whole entry): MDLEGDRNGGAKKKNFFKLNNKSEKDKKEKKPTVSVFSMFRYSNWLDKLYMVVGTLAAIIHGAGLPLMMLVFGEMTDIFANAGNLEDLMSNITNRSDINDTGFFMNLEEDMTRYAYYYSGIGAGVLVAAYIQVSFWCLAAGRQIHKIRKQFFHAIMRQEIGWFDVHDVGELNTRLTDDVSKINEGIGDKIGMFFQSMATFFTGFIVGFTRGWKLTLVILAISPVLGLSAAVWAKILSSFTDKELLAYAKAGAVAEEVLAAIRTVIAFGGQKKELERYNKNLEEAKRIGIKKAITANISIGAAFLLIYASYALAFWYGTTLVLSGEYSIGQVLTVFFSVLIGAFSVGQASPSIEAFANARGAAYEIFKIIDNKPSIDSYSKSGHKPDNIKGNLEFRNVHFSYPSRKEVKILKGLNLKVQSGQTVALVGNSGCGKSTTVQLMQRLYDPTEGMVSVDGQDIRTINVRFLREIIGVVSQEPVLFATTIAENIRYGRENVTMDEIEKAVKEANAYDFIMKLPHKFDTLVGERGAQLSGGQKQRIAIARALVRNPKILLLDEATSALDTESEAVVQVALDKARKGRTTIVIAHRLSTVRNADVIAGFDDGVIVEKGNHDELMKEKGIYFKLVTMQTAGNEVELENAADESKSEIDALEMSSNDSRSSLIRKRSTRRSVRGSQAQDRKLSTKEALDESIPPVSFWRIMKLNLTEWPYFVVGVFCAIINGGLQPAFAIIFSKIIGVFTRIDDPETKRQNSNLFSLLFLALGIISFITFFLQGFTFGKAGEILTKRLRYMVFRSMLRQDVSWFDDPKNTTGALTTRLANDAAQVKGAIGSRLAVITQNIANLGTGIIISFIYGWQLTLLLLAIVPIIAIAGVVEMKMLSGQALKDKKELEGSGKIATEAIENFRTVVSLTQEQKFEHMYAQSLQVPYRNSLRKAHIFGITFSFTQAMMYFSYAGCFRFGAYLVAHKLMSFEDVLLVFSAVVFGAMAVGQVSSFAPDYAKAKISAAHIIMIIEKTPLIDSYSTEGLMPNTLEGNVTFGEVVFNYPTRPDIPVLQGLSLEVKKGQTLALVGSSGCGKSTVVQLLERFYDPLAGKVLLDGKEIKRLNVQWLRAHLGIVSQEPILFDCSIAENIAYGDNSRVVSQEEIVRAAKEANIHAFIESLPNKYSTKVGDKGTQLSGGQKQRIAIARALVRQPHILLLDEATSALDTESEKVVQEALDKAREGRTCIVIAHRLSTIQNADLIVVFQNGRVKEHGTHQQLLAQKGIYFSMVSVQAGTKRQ
T2 sequence (P10632 whole entry): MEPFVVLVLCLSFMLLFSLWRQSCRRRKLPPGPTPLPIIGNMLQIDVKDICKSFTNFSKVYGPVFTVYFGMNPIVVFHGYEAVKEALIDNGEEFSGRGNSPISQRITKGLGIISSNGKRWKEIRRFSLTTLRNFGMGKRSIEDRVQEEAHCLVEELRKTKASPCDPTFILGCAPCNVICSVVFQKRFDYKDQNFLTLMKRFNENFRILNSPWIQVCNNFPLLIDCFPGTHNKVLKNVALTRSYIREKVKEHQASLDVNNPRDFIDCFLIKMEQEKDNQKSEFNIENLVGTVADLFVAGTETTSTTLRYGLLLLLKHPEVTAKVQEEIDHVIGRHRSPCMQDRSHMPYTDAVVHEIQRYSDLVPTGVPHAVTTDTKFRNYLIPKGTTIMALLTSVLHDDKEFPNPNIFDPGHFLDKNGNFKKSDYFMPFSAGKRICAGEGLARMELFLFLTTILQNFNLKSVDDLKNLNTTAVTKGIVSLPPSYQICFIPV
Sequence of OAT1 (Q4U2R8 whole entry, species assumed): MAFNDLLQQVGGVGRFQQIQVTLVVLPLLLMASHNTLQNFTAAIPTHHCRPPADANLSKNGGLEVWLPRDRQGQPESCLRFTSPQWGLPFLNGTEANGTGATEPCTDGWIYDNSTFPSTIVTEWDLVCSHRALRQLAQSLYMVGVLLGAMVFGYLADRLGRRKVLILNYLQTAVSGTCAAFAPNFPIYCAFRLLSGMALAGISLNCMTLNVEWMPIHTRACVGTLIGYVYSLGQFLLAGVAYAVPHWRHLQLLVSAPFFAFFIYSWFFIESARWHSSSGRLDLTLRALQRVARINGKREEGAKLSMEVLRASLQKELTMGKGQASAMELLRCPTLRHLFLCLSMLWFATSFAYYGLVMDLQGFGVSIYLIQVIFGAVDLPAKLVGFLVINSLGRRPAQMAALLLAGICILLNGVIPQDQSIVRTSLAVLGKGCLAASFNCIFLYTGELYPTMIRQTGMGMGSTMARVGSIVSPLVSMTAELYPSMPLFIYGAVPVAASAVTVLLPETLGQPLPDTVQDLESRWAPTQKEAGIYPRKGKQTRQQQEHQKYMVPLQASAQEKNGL

CC(C)n1nccc1-c1ncccc1COc1cccc(O)c1C=O [voxelotor, 2-hydroxy-6-((2-(1-isopropyl-1H-pyrazol-5-yl)pyridin-3-yl)methoxy)benzaldehyde]
% of patients with ≥20% Hb occupancy [1]: Approximately 76% | % of patients with ≥20% Hb occupancy ([1]; listed as Voxelotor): 76.3% | % Hb occupancy [1]: 26% | % Hb occupancy ([1]; listed as Voxelotor): 26.16 (32.2) % | Cmax ([1]; human, whole blood, oral, geometric mean (% CV), 600/900/1500 mg weight-based): 148 µg/mL | AUC(0-t) ([1]; human, whole blood, oral, geometric mean (% CV), 600/900/1500 mg weight-based, read-out: AUC0-24 h, whole blood): 3260 µg·h/mL | half-life ([1]; human, whole blood, oral, geometric mean (% CV), read-out: t1/2, whole blood (converted)): 27.2 h | effect of voxelotor on PK of CYP2C9 probe substrate S-warfarin (CYP2C9; healthy subjects, voxelotor 900/600 mg QD, warfarin sodium 10 mg): no clinically meaningful effect | CYP2C9 inhibition in vivo (CYP2C9; human, in vivo): not | AUC0-24 h, whole blood ([2]; 1,500 mg, geometric mean): 3,830 μg · hr/mL | Cmax, whole blood ([2]; 1,500 mg, geometric mean): 180 µg/mL | differences in PK based on age (12 to 59 years), sex, body weight (28 to 135 kg), mild to severe renal impairment ([2]; human, in vivo): No clinically significant differences | Cmax ([2]; human, plasma, oral, 1500 mg, 1,500 mg, geometric mean): 14 µg/mL | half-life ([2]; human, plasma, oral, 1500 mg, 1,500 mg, geometric mean, patients with SCD, read-out: Half-life (terminal elimination), plasma (converted)): 38.7 h | AUC(0-t) ([2]; human, plasma, oral, 1500 mg, 1,500 mg, geometric mean, read-out: AUC0-24 h, plasma): 278 µg·h/mL | Vd ([2]; human, plasma, oral, read-out: apparent volume of distribution of the central compartment): 333 L | apparent volume of distribution of the peripheral compartment ([2]; plasma): 72.3 L | apparent oral clearance ([2]; plasma, patients with SCD): 6.1 L/h | exposures in whole blood and plasma, pediatric patients 4 to <17 years vs adults ([2]; recommended dosage): similar | enzymes mediating metabolism [3]: CYP3A4, CYP3A5, CYP2B6, CYP2C19, CYP2C9, UGT1A1, and UGT1A9 | effect of renal function on excretion ([4]; human, in vivo): no clinically significant effect | unbound plasma concentrations, severe renal impairment vs healthy controls ([4]; single 900 mg dose): comparable | whole blood exposures lower in severe renal impairment vs healthy controls ([4]; single 900 mg dose, eGFR <30 mL/min/1.73 m^2): 25% | whole blood AUC higher vs normal hepatic function, mild hepatic impairment ([5]; Child Pugh A): 14% | whole blood AUC higher vs normal hepatic function, moderate hepatic impairment ([5]; Child Pugh B): 15% | whole blood AUC higher vs normal hepatic function, severe hepatic impairment ([5]; Child Pugh C): 90% | CYP2C8 inhibition in vivo (CYP2C8): not | P-gp inhibition (P-gp): not an inhibitor | substrate of P-gp (P-gp): not a substrate | OAT1 inhibition (OAT1): not an inhibitor | BSEP inhibition (BSEP): not an inhibitor | substrate of BSEP (BSEP): not a substrate | carcinogenicity (RasH2 transgenic mice): not carcinogenic | genotoxicity, rat Comet assay (rat [6]): not genotoxic | genotoxicity, rat micronucleus assay (rat [7]): not genotoxic | sperm morphology (rats; 250 mg/kg/day): changes in sperm morphology | sperm motility (rats; 250 mg/kg/day): decreased | fertility or reproductive function (rats; oral 15, 50, 250 mg/kg/day): no effect on fertility or reproductive function | exposure at 250 mg/kg/day relative to human exposure at 1,500 mg/day (rats; rat, in vivo): approximately 5 times | increase of voxelotor AUC with itraconazole (CYP3A4): 11%
